Results published in patent US10597388B2, “Pyridazinone herbicides” (FMC CORPORATION, priority 2014, dated 2020).

Tests used:
Format in all cases: in vivo
[1] = test system: barnyardgrass (Echinochloa crus-galli); experiment: Test A greenhouse herbicide test, pre- and postemergence
How it was run: (§1)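 Seeds sown in loam–sand blend got a preemergence directed soil spray of compound in non-phytotoxic solvent with surfactant. Postemergence treatment was given at 2–10 cm, one- to two-leaf stage. After ~10 d in greenhouse, injury was rated visually vs untreated controls, 0 (no effect) to 100 (complete control).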

[2] = test system: corn (Zea mays); experiment: as above; details: Postemergence
How it was run: as §1

[3] = test system: foxtail, giant (giant foxtail, Setaria faberii); experiment: as above
How it was run: as §1

[4] = test system: kochia (Kochia scoparia); experiment: as above
How it was run: as §1

[5] = test system: pigweed (Amaranthus retroflexus); experiment: as above
How it was run: as §1

[6] = test system: ragweed (common ragweed, Ambrosia elatior); experiment: as above
How it was run: as §1

[7] = test system: ryegrass, Italian (Italian ryegrass, Lolium multiflorum); experiment: as above
How it was run: as §1

[8] = test system: wheat (Triticum aestivum); experiment: as above; details: Postemergence
How it was run: as §1

[9] = test system: blackgrass (Alopecurus myosuroides); experiment: Test A greenhouse herbicide test, postemergence
How it was run: (§2)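 Plants grown in loam soil/sand blend pots were treated postemergence at 2 to 10 cm height, one- to two-leaf stage, with formulated test chemicals. After approximately 10 d in a greenhouse, injury was rated visually against untreated controls on a 0 to 100 scale (0 no effect, 100 complete control).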

[10] = test system: galium (catchweed bedstraw, Galium aparine); experiment: Test A greenhouse herbicide test, postemergence
How it was run: as §2

[11] = test system: barnyardgrass (Echinochloa crus-galli); experiment: Test B flooded paddy test; details: 250 g ai/ha, Flood; visual rating on scale of 0 to 100 where 0 is no effect and 100 is complete control; 13 to 15 d after treatment
How it was run: (§3)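 Plants at the 2-leaf stage were flooded to 3 cm above soil, and test compounds were applied directly into the paddy water, which was held at that depth throughout. After 13 to 15 d in a greenhouse, injury was rated visually against untreated controls on a 0–100 scale (0 no effect, 100 complete control).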

[12] = test system: ducksalad (Heteranthera limosa); experiment: Test B flooded paddy test; details: 250 g ai/ha, Flood; visual rating on scale of 0 to 100 where 0 is no effect and 100 is complete control; 13 to 15 d after treatment
How it was run: as §3

[13] = test system: rice (Oryza sativa); experiment: Test B flooded paddy test; details: 250 g ai/ha, Flood; visual rating on scale of 0 to 100 where 0 is no effect and 100 is complete control; 13 to 15 d after treatment
How it was run: as §3

[14] = test system: sedge, umbrella (small-flower umbrella sedge, Cyperus difformis); experiment: Test B flooded paddy test; details: 250 g ai/ha, Flood; visual rating on scale of 0 to 100 where 0 is no effect and 100 is complete control; 13 to 15 d after treatment
How it was run: as §3

[15] = Postemergence, 125 g ai/ha, 0 to 100 scale, 0 no effect, 100 complete control
[16] = Postemergence, 500 g ai/ha, visual rating after approx. 10 d, 0 to 100 scale (0 no effect, 100 complete control)
[17] = Preemergence, 125 g ai/ha, visual injury rating, 0 to 100 scale (0 no effect, 100 complete control), approx. 10 d
[18] = Preemergence, 500 g ai/ha, 0 to 100 scale where 0 is no effect and 100 is complete control
[19] = 125 g ai/ha, 0 to 100 scale, 0 no effect, 100 complete control
[20] = 500 g ai/ha, visual rating after approx. 10 d, 0 to 100 scale (0 no effect, 100 complete control)

SMILES: Cc1nn(C)c(=O)c(-c2c(C)sc3ccccc23)c1OC(=O)N1CCOCC1 [Compound 170]
- Plant response rating, Barnyardgrass [1, 15]: 0
- Plant response rating, Barnyardgrass [1, 16]: 10
- Plant response rating, Barnyardgrass [1, 17]: 0
- Plant response rating, Barnyardgrass [1, 18]: 0
- Plant response rating, Corn [2, 19]: 0
- Plant response rating, Corn [2, 20]: 0
- Plant response rating, Foxtail, Giant [3, 15]: 0
- Plant response rating, Foxtail, Giant [3, 16]: 10
- Plant response rating, Foxtail, Giant [3, 17]: 0
- Plant response rating, Foxtail, Giant [3, 18]: 0
- Plant response rating, Kochia [4, 15]: 0
- Plant response rating, Kochia [4, 16]: 70
- Plant response rating, Kochia [4, 17]: 0
- Plant response rating, Kochia [4, 18]: 0
- Plant response rating, Pigweed [5, 15]: 70
- Plant response rating, Pigweed [5, 16]: 80
- Plant response rating, Pigweed [5, 17]: 30
- Plant response rating, Pigweed [5, 18]: 100
- Plant response rating, Ragweed [6, 15]: 40
- Plant response rating, Ragweed [6, 16]: 80
- Plant response rating, Ragweed [6, 17]: 0
- Plant response rating, Ragweed [6, 18]: 20
- Plant response rating, Ryegrass, Italian [7, 15]: 0
- Plant response rating, Ryegrass, Italian [7, 16]: 50
- Plant response rating, Ryegrass, Italian [7, 17]: 0
- Plant response rating, Ryegrass, Italian [7, 18]: 40
- Plant response rating, Wheat [8, 19]: 0
- Plant response rating, Wheat [8, 20]: 0
- Plant response rating, Blackgrass [9, 19]: 0
- Plant response rating, Blackgrass [9, 20]: 10
- Plant response rating, Galium [10, 19]: 40
- Plant response rating, Galium [10, 20]: 80
- Plant response rating, Barnyardgrass [11]: 0
- Plant response rating, Ducksalad [12]: 0
- Plant response rating, Rice [13]: 0
- Plant response rating, Sedge, Umbrella [14]: 60

SMILES: COC(=O)Cn1nc(C)c(O)c(-c2cccc3ccccc23)c1=O [Compound 172]
- Plant response rating, Barnyardgrass [1, 15]: 40
- Plant response rating, Barnyardgrass [1, 16]: 70
- Plant response rating, Barnyardgrass [1, 17]: 20
- Plant response rating, Barnyardgrass [1, 18]: 50
- Plant response rating, Corn [2, 19]: 0
- Plant response rating, Corn [2, 20]: 0
- Plant response rating, Foxtail, Giant [3, 15]: 40
- Plant response rating, Foxtail, Giant [3, 16]: 80
- Plant response rating, Foxtail, Giant [3, 17]: 60
- Plant response rating, Foxtail, Giant [3, 18]: 90
- Plant response rating, Kochia [4, 15]: 0
- Plant response rating, Kochia [4, 16]: 20
- Plant response rating, Kochia [4, 17]: 0
- Plant response rating, Kochia [4, 18]: 0
- Plant response rating, Pigweed [5, 15]: 0
- Plant response rating, Pigweed [5, 16]: 30
- Plant response rating, Pigweed [5, 17]: 0
- Plant response rating, Pigweed [5, 18]: 0
- Plant response rating, Ragweed [6, 15]: 0
- Plant response rating, Ragweed [6, 16]: 0
- Plant response rating, Ragweed [6, 17]: 0
- Plant response rating, Ragweed [6, 18]: 0
- Plant response rating, Ryegrass, Italian [7, 15]: 20
- Plant response rating, Ryegrass, Italian [7, 16]: 60
- Plant response rating, Ryegrass, Italian [7, 17]: 0
- Plant response rating, Ryegrass, Italian [7, 18]: 20
- Plant response rating, Wheat [8, 19]: 20
- Plant response rating, Wheat [8, 20]: 20
- Plant response rating, Blackgrass [9, 19]: 20
- Plant response rating, Blackgrass [9, 20]: 30
- Plant response rating, Galium [10, 19]: 20
- Plant response rating, Galium [10, 20]: 40
- Plant response rating, Barnyardgrass [11]: 0
- Plant response rating, Ducksalad [12]: 0
- Plant response rating, Rice [13]: 0
- Plant response rating, Sedge, Umbrella [14]: 0

SMILES: Cc1n[nH]c(=O)c(-c2cccc3ccccc23)c1OC(F)F [Compound 175]
- Plant response rating, Barnyardgrass [1, 15]: 0
- Plant response rating, Barnyardgrass [1, 16]: 0
- Plant response rating, Barnyardgrass [1, 17]: 0
- Plant response rating, Barnyardgrass [1, 18]: 0
- Plant response rating, Corn [2, 19]: 0
- Plant response rating, Corn [2, 20]: 20
- Plant response rating, Foxtail, Giant [3, 15]: 0
- Plant response rating, Foxtail, Giant [3, 16]: 0
- Plant response rating, Foxtail, Giant [3, 17]: 0
- Plant response rating, Foxtail, Giant [3, 18]: 0
- Plant response rating, Kochia [4, 15]: 0
- Plant response rating, Kochia [4, 16]: 0
- Plant response rating, Kochia [4, 17]: 0
- Plant response rating, Kochia [4, 18]: 20
- Plant response rating, Pigweed [5, 15]: 0
- Plant response rating, Pigweed [5, 16]: 0
- Plant response rating, Pigweed [5, 17]: 0
- Plant response rating, Pigweed [5, 18]: 60
- Plant response rating, Ragweed [6, 15]: 0
- Plant response rating, Ragweed [6, 16]: 0
- Plant response rating, Ragweed [6, 17]: 0
- Plant response rating, Ragweed [6, 18]: 20
- Plant response rating, Ryegrass, Italian [7, 15]: 20
- Plant response rating, Ryegrass, Italian [7, 16]: 30
- Plant response rating, Ryegrass, Italian [7, 17]: 20
- Plant response rating, Ryegrass, Italian [7, 18]: 20
- Plant response rating, Wheat [8, 19]: 0
- Plant response rating, Wheat [8, 20]: 20
- Plant response rating, Blackgrass [9, 19]: 0
- Plant response rating, Blackgrass [9, 20]: 20
- Plant response rating, Galium [10, 19]: 0
- Plant response rating, Galium [10, 20]: 0
- Plant response rating, Barnyardgrass [11]: 0
- Plant response rating, Ducksalad [12]: 0
- Plant response rating, Rice [13]: 0
- Plant response rating, Sedge, Umbrella [14]: 0
